Data from US12540922B2, “Quantitative shotgun proteome, lipidome, and metabolome analysis by direct infusion” (Wisconsin Alumni Research Foundation, priority 2021, dated 2026).

Tested on: 293T cells (wild type or PPTC7 knockout)
Experiment: MitoTox screen: DI-SPA proteome quantification of toxin-treated cells
Type: cell-based, human
Conditions: 6-hour compound treatments, DMEM or HPLM
Description: Wild type or PPTC7 knockout (KO) cells were grown in either standard or modified media, DMEM or HPLM (Cantor et al., Cell, 169, 258-272.e17 (2017)), respectively, and treated in triplicate with one of nine mitochondrial toxins or two controls for a total 132 samples. These conditions were chosen because of their known effects on metabolism and mitochondria, which were hypothesized to induce changes in proteins and thus provide a suitable testbed for DI-SPA. Again, a peptide discovery experiment (like FIG. 7) was first performed to identify peptides for subsequent targeted quantification experiments, in which 1,384 peptides were identified (peptide-level FDR=0.93%) from 451 proteins (protein-level FDR=2.8%). Next, a quantitative targeted DI-SPA assay was generated to expeditiously monitor the most intense peptide from each of the 451 proteins. This method was used to analyze all 132 samples, generating 132 proteotypes and requiring only 120 seconds of MS data collection per sample. A total of 341 out of 451 protein targets were quantified across all 132 samples in only 4.4 hours of total MS data acquisition, which corresponds to over 45,000 proteins quantified at a rate of nearly three proteins per second (FIG. 4, panel B).
MitoTox Experiment—Cell Culture. 293T cells were purchased from ATCC (#CRL-3216) and maintained in DMEM (4.5 g/L glucose, 4 mM glutamine, no pyruvate—Thermo #11965092) supplemented with 10% fetal bovine serum (FBS) and 1× penicillin/streptomycin (100 U/mL final [c]). Human Plasma-Like Medium (HPLM) was supplemented with 10% dialyzed FBS (Thermo #26400036) and 1× penicillin/streptomycin (100 U/mL final [c]). For heavy labeling, 293T cells were labeled using the DMEM-based SILAC protein quantitation kit (Thermo #A33972). Briefly, cells were grown for at least 5 passages SILAC-compatible DMEM supplemented with 10% dialyzed FBS, ^13C ^15N2 L-lysine-2HCl and ^13C6 ^15N4 L-arginine HCl, and 1× penicillin/streptomycin. SILAC labeling was confirmed through mass spectrometry analysis and ratios of light/heavy cells were titrated based on analysis of median ratios observed in the controls. All cells were grown in a tissue culture grade incubator held at 37° C. supplemented with 5% CO2. Cells were verified as mycoplasma negative via the e-Myco Mycoplasma PCR Detection Kit (Bulldog Bio #25233).
MitoTox screen conditions. 293T or PPTC7 knockout 293T cells were split and plated in 24 well plates at 7.5×10^4 cells per well. Cells were allowed to adhere overnight, and media was replaced with fresh DMEM or HPLM for a total of 24 hours prior to collection of cells. Compound treatments were grouped into 6-hour or 24-hour incubations, with 6-hour compound treatments occurring in the last 6 hours of the 24-hour media change, and 24-hour compound treatments occurring for the entire 24 hours of media treatment. Compounds used for 6 hours include antimycin A (5 μM final [c], Sigma #A8674), rotenone (5 μM final [c], Sigma #R8875), oligomycin (2.5 μM final [c], Sigma #04876), CCCP (10 μM final [c], Sigma #C2759), valinomycin (1 μM final [c], Sigma #V0627) and CDDO (2.5 μM final [c], Cayman Chemical #11883)). Compounds used for 24 hours include doxycycline (10 μg/ml final [c], VWR #75844-668) and Deferoxamine (DFO, 100 μM final [c], Sigma #D9533). One compound, 4-nitrobenzoate (4-NB, 1 mM final [c], Sigma #461091), requires 6+ days for efficacy (Forsman et al., Nature Chemical Biology, 6, 515-517 (2010)), and thus cells were treated with this compound for 5 days before being split to 7.5×10^4 cells per well and grouped with the 24 hour incubations. Control, untreated 293T cells were split and harvested with both the 6-hour and 24-hour compound treatment sets. All conditions were plated and collected in 3 replicate wells. […]

Molecule | proteome perturbation (UMAP of proteotypes) in relation to 6 h controls
N#CC(C#N)=NNc1cccc(Cl)c1 [CCCP] | produced more (and comparable) proteome rearrangement
CC1(C)CC[C@]2(C(=O)O)CC[C@]3(C)[C@H](C(=O)C=C4[C@@]5(C)C=C(C#N)C(=O)C(C)(C)[C@@H]5CC[C@]43C)[C@@H]2C1 [CDDO] | media dependent
CC(C)[C@@H]1NC(=O)[C@H](C)OC(=O)[C@@H](C(C)C)NC(=O)[C@@H](C(C)C)OC(=O)[C@H](C(C)C)NC(=O)[C@H](C)OC(=O)[C@@H](C(C)C)NC(=O)[C@@H](C(C)C)OC(=O)[C@H](C(C)C)NC(=O)[C@H](C)OC(=O)[C@@H](C(C)C)NC(=O)[C@@H](C(C)C)OC1=O [Valinomycin, valinomycin] | induced the most profound proteome perturbation relative to controls
CC[C@H]1/C=C/C=C/C[C@@H](C)[C@H](O)[C@@](C)(O)C(=O)[C@@H](C)[C@H](O)[C@@H](C)C(=O)[C@@H](C)[C@H](O)[C@@H](C)/C=C/C(=O)O[C@@H]2[C@H](C)[C@H](CC1)O[C@]1(CC[C@H](C)[C@H](C[C@@H](C)O)O1)[C@H]2C [oligomycin] | produced more (and comparable) proteome rearrangement
C=C(C)[C@H]1Cc2c(ccc3c2O[C@@H]2COc4cc(OC)c(OC)cc4[C@@H]2C3=O)O1 [rotenone] | most similar
antimycin A | most similar
